Experimental data: patent US8829197B2, “Salts and polymorphs of desazadesferrithiocin polyether analogues as metal chelation agents” (FerroKin Biosciences, Inc., priority 2008, dated 2014)
Where two headings read alike, the source gives them in different places.

Tests used:
[1] = iron-loaded Cebus apella, mean ± SEM, cited from earlier work
[2] = non-iron-overloaded rats, mean ± SEM, cited from earlier work
[3] = Iron clearing efficiency in non-iron-overloaded, bile duct-cannulated rats (dose response po; po versus sc); assay type: in vivo, male Sprague-Dawley rats; conditions: mean ± SEM
Description: Cebus apella monkeys were obtained from World Wide Primates (Miami, Fla.). Male Sprague-Dawley rats were procured from Harlan Sprague-Dawley (Indianapolis, Ind.). Ultrapure salts were obtained from Johnson Matthey Electronics (Royston, UK). All hematological and biochemical studies were performed by Antech Diagnostics (Tampa, Fla.).
Cannulation of Bile Duct in Non-Iron-Overloaded Rats. The cannulation has been described previously in Bergeron, R J et al., Blood 1993, 81, 2166-2173 and Bergeron, R J et al., Ann. N.Y Acad.Sci. 1990, 612, 378-393. Bile samples were collected from male Sprague—Dawley rats (400-450 g) at 3 h intervals for 24 h. The urine sample was taken at 24 h. Sample collection and handling are as previously described. 57'58
Drug Preparation and Administration. In the iron clearing experiments the rats were given a single 50, 150, or 300 mol/kg dose of the drugs po and/or sc. The compounds were administered as a solution in water, 300 mol/kg dose only or (2) as the monosodium salt of the compound of interest (prepared by addition of the free acid to 1 equivalent of NaOH). The chelators were given to the monkeys po and sc at a dose of 150 tmol/kg. The drugs were prepared as for the rats; 2 was given po and sc as a solution in water.
Calculation of Iron Chelator Efficiency. ICE is calculated by dividing the actual amount of iron cleared by a given compound by the theoretical amount that should be cleared. The theoretical iron outputs of the chelators were generated on the basis of a 2:1 ligand:iron complex. The efficiencies in the rats and monkeys were calculated as set forth in Bergeron, R J et al., J. Med. Chem. 1999, 42, 2432-2440. Data are presented as the mean+the standard error of the mean; p-values were generated via a one-tailed Student's 1-test in which the inequality of variances was assumed; and a p-value of <0.05 was considered significant.
Chelator-Induced Iron Clearance and Iron Clearing Efficiency in Non-Iron-Overloaded Rodents Dose Response Studies. Because there is a limited amount of chelatable iron available in an animal at any given time, the iron clearance, and therefore iron-clearing efficiency of a ligand, is saturable. The key to managing this phenomenon can be found in the ferrokinetics and the dose-response properties of the ligand. In this regard, the dose-response along with the corresponding ferrokinetics of each compound given po were evaluated in the non-iron-overloaded, bile duct-cannulated rodent model.
Iron-Clearing Efficiency in Non-Iron-Overloaded Rodents and Iron-Loaded Primates: Oral versus Subcutaneous Administration. A similar protocol was carried out to confirm consistence of results and compare the effects of the compounds across species. Cebus apella monkeys and male Sprague-Dawley rats were used, 3-8 per group.

| Structure (SMILES) | Primate ICE @ 150 μmol/kg ([1]; po) | Primate ICE @ 150 μmol/kg ([1]; sc) | Rodent ICE @ 300 μmol/kg ([2]; po) | Rodent ICE @ 300 μmol/kg ([2]; sc) | Iron-Clearing Efficiency (%) ([3]; dose 50 μmol/kg) | Iron-Clearing Efficiency (%) ([3]; dose 150 μmol/kg) | Iron-Clearing Efficiency (%) ([3]; dose 300 μmol/kg) |
| --- | --- | --- | --- | --- | --- | --- | --- |
| COCCOCCOCCOc1cccc(C2=N[C@@](C)(C(=O)O)CS2)c1O [(S)-3′-HO-DADFT, (S)-4,5-dihydro-2-[2-hydroxy-3-(3,6,9-trioxadecyloxy)phenyl]-4-methyl-4-thiazolecarboxylic acid] | 23.0 ± 4.1% | 21.5 ± 3.2% | 10.6 ± 4.4% | 13.4 ± 4.5% | 20.7 ± 4.4% | 18.7 ± 2.9% | 10.6 ± 4.4% |
| C[C@]1(C(=O)O)CSC(c2ccc(O)cc2O)=N1 [(S)-4′-HO-DADFT] |  | 30.4 ± 7.2% | 5.5 ± 1.9% | 8.7 ± 2.6% | 21.7 ± 3.5% | 11.2 ± 4.2% | 5.5 ± 1.9% |
| C[C@]1(C(=O)O)CSC(c2ccc(O)cc2O)=N1 [Deferitrin, (S)-2-(2,4-dihydroxyphenyl)-4,5dihydro-4-methyl-4-thiazolecarboxylic acid, reference compound] | 16.8 ± 7.2% | 15.9 ± 2.7% | 1.1 ± 0.8% | 1.1 ± 0.6% |  | 1.5 + 1.7% | 1.1 ± 0.8% |
